# System: MV-4-11 cells
# Assay: Gene expression microarray analysis (Affymetrix PrimeView) and GSEA
# Type: cell-based, human
# Parameters: RFU PODN (11730768_x_at) / Fold change /veh PODN (11730768_x_at) / RFU LINC00158 (11744669_a_at) / Fold change /veh LINC00158 (11744669_a_at) / RFU DUSP10 (11751237_a_at) / Fold change /veh DUSP10 (11751237_a_at) / RFU ID3 (11757404_x_at) / Fold change /veh ID3 (11757404_x_at) / RFU PLEKHG5 (11737974_s_at) / Fold change /veh PLEKHG5 (11737974_s_at) / RFU LRRC4B (11730491_at) / Fold change /veh LRRC4B (11730491_at) / RFU GIMAP4 (11747438_a_at) / Fold change /veh GIMAP4 (11747438_a_at) / RFU KRT8 (11758183_x_at) / Fold change /veh KRT8 (11758183_x_at) / RFU CNN1 (11734310_a_at) / Fold change /veh CNN1 (11734310_a_at) / RFU VPS37D (11726825_at) / Fold change /veh VPS37D (11726825_at) / RFU C10orf10 (11716522_x_at) / Fold change /veh C10orf10 (11716522_x_at) / RFU KIR2DL2 /// KIR2DL4 /// KIR2DL5A /// KIR2DL5B /// KIR2DS1 /// KIR2DS2 /// KIR2DS3 /// KIR2DS4 /// KIR3DL3 /// KIR3DL3 /// KIR3DS1 (11738374_at) / Fold change /veh KIR2DL2 /// KIR2DL4 /// KIR2DL5A /// KIR2DL5B /// KIR2DS1 /// KIR2DS2 /// KIR2DS3 /// KIR2DS4 /// KIR3DL3 /// KIR3DL3 /// KIR3DS1 (11738374_at) / RFU C1QL1 (11718748_at) / Fold change /veh C1QL1 (11718748_at) / RFU TMPRSS4 (11747572_a_at) / Fold change /veh TMPRSS4 (11747572_a_at) / RFU HAMP (11756126_x_at) / Fold change /veh HAMP (11756126_x_at) / RFU RNFT2 (11725882_a_at) / Fold change /veh RNFT2 (11725882_a_at) / RFU NR4A2 (11747474_a_at) / Fold change /veh NR4A2 (11747474_a_at) / RFU ABCC12 (11746883_a_at) / Fold change /veh ABCC12 (11746883_a_at) / RFU TMEM136 (11760407_x_at) / Fold change /veh TMEM136 (11760407_x_at) / RFU CLDN22 /// WWC2 (11732394_at) / Fold change /veh CLDN22 /// WWC2 (11732394_at) / RFU HLA-DPB1 (11760878_x_at) / Fold change /veh HLA-DPB1 (11760878_x_at) / RFU SPINT1 (11716480_a_at) / Fold change /veh SPINT1 (11716480_a_at) / RFU GAP43 (11754022_s_at) / Fold change /veh GAP43 (11754022_s_at) / RFU A4GNT (11735810_at) / Fold change /veh A4GNT (11735810_at) / RFU PRB3 (11715151_x_at) / Fold change /veh PRB3 (11715151_x_at) / RFU TUBB4B (11761932_at) / Fold change /veh TUBB4B (11761932_at) / RFU CAPN14 (11732068_a_at) / Fold change /veh CAPN14 (11732068_a_at) / RFU TMCC2 (11721928_a_at) / Fold change /veh TMCC2 (11721928_a_at) / RFU IRGQ (11745062_a_at) / Fold change /veh IRGQ (11745062_a_at) / RFU FAM174B (11720279_a_at) / Fold change /veh FAM174B (11720279_a_at) / RFU TMPRSS4 (11748680_a_at) / Fold change /veh TMPRSS4 (11748680_a_at) / RFU FAM212B (11763350_a_at) / Fold change /veh FAM212B (11763350_a_at) / RFU PLEKHG5 (11743358_a_at) / Fold change /veh PLEKHG5 (11743358_a_at) / RFU ZSCAN30 (11745921_a_at) / Fold change /veh ZSCAN30 (11745921_a_at) / RFU CMKLR1 (11741424_a_at) / Fold change /veh CMKLR1 (11741424_a_at) / RFU LOC101060620 /// MAPK8IP1 (11723275_at) / Fold change /veh LOC101060620 /// MAPK8IP1 (11723275_at) / RFU SPTSSB (11747773_x_at) / Fold change /veh SPTSSB (11747773_x_at) / RFU PRSS12 (11739890_at) / Fold change /veh PRSS12 (11739890_at) / RFU BIN1 (11741810_x_at) / Fold change /veh BIN1 (11741810_x_at) / RFU WNT11 (11732464_a_at) / Fold change /veh WNT11 (11732464_a_at) / RFU C10orf10 (11716521_a_at) / Fold change /veh C10orf10 (11716521_a_at) / RFU C5orf56 (11738089_at) / Fold change /veh C5orf56 (11738089_at) / RFU CYB561 (11721691_x_at) / Fold change /veh CYB561 (11721691_x_at) / RFU ANKRD19P (11752326_a_at) / Fold change /veh ANKRD19P (11752326_a_at) / RFU OR2T12 /// OR2T33 /// OR2T8 (11738714_s_at) / Fold change /veh OR2T12 /// OR2T33 /// OR2T8 (11738714_s_at) / RFU VCAN (11748164_a_at) / Fold change /veh VCAN (11748164_a_at) / RFU JSRP1 (11732532_at) / Fold change /veh JSRP1 (11732532_at) / RFU KRTAP10-11 (11738290_x_at) / Fold change /veh KRTAP10-11 (11738290_x_at) / RFU MYO3A (11730013_a_at) / Fold change /veh MYO3A (11730013_a_at) / RFU EBF3 (11725865_a_at) / Fold change /veh EBF3 (11725865_a_at) / RFU CAMK2N1 (11719241_x_at) / Fold change /veh CAMK2N1 (11719241_x_at) / RFU C5orf56 (11738088_a_at) / Fold change /veh C5orf56 (11738088_a_at) / RFU OLFML3 (11715873_a_at) / Fold change /veh OLFML3 (11715873_a_at) / RFU LOC100653217 /// NTM (11731650_a_at) / Fold change /veh LOC100653217 /// NTM (11731650_a_at) / RFU MAPK11 (11762145_a_at) / Fold change /veh MAPK11 (11762145_a_at) / RFU FIZ1 (11724087_x_at) / Fold change /veh FIZ1 (11724087_x_at) / RFU OASL (11726364_x_at) / Fold change /veh OASL (11726364_x_at) / RFU SOX15 (11748057_x_at) / Fold change /veh SOX15 (11748057_x_at) / RFU CD79A (11719716_a_at) / Fold change /veh CD79A (11719716_a_at) / RFU HIST1H1D (11736915_at) / Fold change /veh HIST1H1D (11736915_at) / RFU CASKIN2 (11723855_a_at) / Fold change /veh CASKIN2 (11723855_a_at) / RFU LOC730098 (11760151_x_at) / Fold change /veh LOC730098 (11760151_x_at) / RFU OR4N2 (11742367_at) / Fold change /veh OR4N2 (11742367_at) / RFU PRRT2 (11749266_a_at) / Fold change /veh PRRT2 (11749266_a_at) / RFU SNX32 (11753110_a_at) / Fold change /veh SNX32 (11753110_a_at) / RFU CDHR5 (11726645_a_at) / Fold change /veh CDHR5 (11726645_a_at) / RFU RCAN1 (11760418_a_at) / Fold change /veh RCAN1 (11760418_a_at) / RFU FAM167A (11723789_a_at) / Fold change /veh FAM167A (11723789_a_at) / RFU FAM26E (11764081_at) / Fold change /veh FAM26E (11764081_at) / RFU ISYNA1 (11749810_s_at) / Fold change /veh ISYNA1 (11749810_s_at) / RFU ACY1 (11761880_at) / Fold change /veh ACY1 (11761880_at) / RFU 11764098_at / Fold change /veh 11764098_at / RFU SAMD14 (11745864_x_at) / Fold change /veh SAMD14 (11745864_x_at) / RFU NPB (11741838_a_at) / Fold change /veh NPB (11741838_a_at) / RFU TMPRSS6 (11731388_a_at) / Fold change /veh TMPRSS6 (11731388_a_at) / RFU KRTAP10-2 (11738614_at) / Fold change /veh KRTAP10-2 (11738614_at) / RFU ARHGAP8 /// PRR5-ARHGAP8 (11727945_x_at) / Fold change /veh ARHGAP8 /// PRR5-ARHGAP8 (11727945_x_at) / RFU KRTAP5-7 /// NADSYN1 (11734609_at) / Fold change /veh KRTAP5-7 /// NADSYN1 (11734609_at) / RFU RASL12 (11751679_a_at) / Fold change /veh RASL12 (11751679_a_at) / RFU CDKN2B (11736163_a_at) / Fold change /veh CDKN2B (11736163_a_at) / RFU PRF1 (11729649_at) / Fold change /veh PRF1 (11729649_at) / RFU, ZNF638 /// ZNF638-IT1 / Fold change vs veh, ZNF638 /// ZNF638-IT1 / RFU, PANK3 / Fold change vs veh, PANK3 / RFU, SH3YL1 / Fold change vs veh, SH3YL1 / RFU, ZEB2 / Fold change vs veh, ZEB2 / RFU, NRIP1 / Fold change vs veh, NRIP1 / RFU, PTTG1IP / Fold change vs veh, PTTG1IP / RFU, CAPN2 / Fold change vs veh, CAPN2 / RFU, MED14 / Fold change vs veh, MED14 / RFU, SNORA58 / Fold change vs veh, SNORA58 / RFU, C1orf63 / Fold change vs veh, C1orf63 / RFU, LRRFIP1 / Fold change vs veh, LRRFIP1 / RFU, NDUFAF7 / Fold change vs veh, NDUFAF7 / RFU, SLC12A2 / Fold change vs veh, SLC12A2 / RFU, IBTK / Fold change vs veh, IBTK / RFU, ESF1 / Fold change vs veh, ESF1 / Fold change vs veh, TMEM50B / RFU, TAOK1 / Fold change vs veh, TAOK1 / RFU, ACBD3 / Fold change vs veh, ACBD3 / RFU, TMA16 / Fold change vs veh, TMA16 / RFU, RWDD3 / Fold change vs veh, RWDD3 / RFU, BCAT1 / Fold change vs veh, BCAT1 / RFU, EDEM3 / Fold change vs veh, EDEM3 / RFU, TMEM33 / Fold change vs veh, TMEM33 / RFU, WDR75 / Fold change vs veh, WDR75 / RFU, AHCTF1 / Fold change vs veh, AHCTF1 / RFU, TFRC / Fold change vs veh, TFRC / RFU, ZDHHC17 / Fold change vs veh, ZDHHC17 / RFU, NOM1 / Fold change vs veh, NOM1 / RFU, ARL8B / Fold change vs veh, ARL8B / RFU, ZBTB11 / Fold change vs veh, ZBTB11 / RFU, TAMM41 / Fold change vs veh, TAMM41 / RFU, KIAA1704 /// LOC100996395 / Fold change vs veh, KIAA1704 /// LOC100996395 / RFU, ING1 / Fold change vs veh, ING1 / RFU, TRMT61B / Fold change vs veh, TRMT61B / RFU, FUBP3 / Fold change vs veh, FUBP3 / RFU, TP53 / Fold change vs veh, TP53 / RFU, TNKS2 / Fold change vs veh, TNKS2 / RFU, ZFP14 / Fold change vs veh, ZFP14 / RFU, ACTR2 / Fold change vs veh, ACTR2 / RFU, PPP3R1 / Fold change vs veh, PPP3R1 / RFU, PIK3R1 / Fold change vs veh, PIK3R1 / RFU, HNRNPA1 / Fold change vs veh, HNRNPA1 / RFU, RNF170 / Fold change vs veh, RNF170 / RFU, ZNF28 / Fold change vs veh, ZNF28 / RFU, RNGTT / Fold change vs veh, RNGTT / RFU, OGT / Fold change vs veh, OGT / RFU, BRD1 / Fold change vs veh, BRD1 / RFU, MARS / Fold change vs veh, MARS / RFU, ZNF655 / Fold change vs veh, ZNF655 / RFU, FAHD1 / Fold change vs veh, FAHD1 / RFU, BDP1 / Fold change vs veh, BDP1 / RFU, LRRCC1 / Fold change vs veh, LRRCC1 / RFU, ARID1A / Fold change vs veh, ARID1A / RFU, ZNF146 / Fold change vs veh, ZNF146 / RFU, ZNF330 / Fold change vs veh, ZNF330 / RFU, GPN3 / Fold change vs veh, GPN3 / RFU, C9orf123 / Fold change vs veh, C9orf123 / RFU, N4BP2L2 / Fold change vs veh, N4BP2L2 / RFU, ARFIP1 / Fold change vs veh, ARFIP1 / RFU, FAM179B / Fold change vs veh, FAM179B / RFU, BCL10 / Fold change vs veh, BCL10 / RFU, UHRF1BP1L / Fold change vs veh, UHRF1BP1L / RFU, BET1 / Fold change vs veh, BET1 / RFU, CNOT2 / Fold change vs veh, CNOT2 / RFU, ZNF268 / Fold change vs veh, ZNF268 / Fold change vs veh, ZNF507 / RFU, DGCR2 / Fold change vs veh, DGCR2 / RFU, WDSUB1 / Fold change vs veh, WDSUB1 / Fold change vs veh, HSP90B1 /// MIR3652 / RFU, ADSS / Fold change vs veh, ADSS / RFU, GK / Fold change vs veh, GK / RFU, ZNF148 / Fold change vs veh, ZNF148 / RFU, TAF9 / Fold change vs veh, TAF9 / RFU, SLC1A5 / Fold change vs veh, SLC1A5 / RFU, SLMO2 / Fold change vs veh, SLMO2 / RFU, ABCC4 / Fold change vs veh, ABCC4 / RFU, LOC101060439 /// RAP1B / Fold change vs veh, LOC101060439 /// RAP1B / RFU, RFX7 / Fold change vs veh, RFX7 / RFU, GTPBP10 / Fold change vs veh, GTPBP10 / RFU, CNEP1R1 / Fold change vs veh, CNEP1R1 / RFU, BIVM-ERCC5 /// ERCC5 / Fold change vs veh, BIVM-ERCC5 /// ERCC5 / RFU, ILF3 / Fold change vs veh, ILF3 / RFU 11762660_at / Fold change /veh 11762660_at / RFU VCAN (11757783_s_at) / Fold change /veh VCAN (11757783_s_at) / RFU DDX43 (11728927_at) / Fold change /veh DDX43 (11728927_at) / RFU KRT8 (11758188_x_at) / Fold change /veh KRT8 (11758188_x_at) / RFU NKD1 (11759106_at) / Fold change /veh NKD1 (11759106_at) / RFU SRD5A1 (11742802_a_at) / Fold change /veh SRD5A1 (11742802_a_at) / RFU TPSAB1 /// TPSB2 (11721975_s_at) / Fold change /veh TPSAB1 /// TPSB2 (11721975_s_at) / RFU GSTM3 (11746129_a_at) / Fold change /veh GSTM3 (11746129_a_at) / RFU IL23R (11737362_x_at) / Fold change /veh IL23R (11737362_x_at) / RFU TMEM51 (11727254_a_at) / Fold change /veh TMEM51 (11727254_a_at) / RFU PIWIL2 (11732686_x_at) / Fold change /veh PIWIL2 (11732686_x_at) / RFU ORM1 (11744905_x_at) / Fold change /veh ORM1 (11744905_x_at) / RFU CCDC152 (11743942_at) / Fold change /veh CCDC152 (11743942_at) / RFU ECM1 (11717891_a_at) / Fold change /veh ECM1 (11717891_a_at) / RFU IL23R (11748794_a_at) / Fold change /veh IL23R (11748794_a_at) / RFU TNFAIP8L3 (11732012_x_at) / Fold change /veh TNFAIP8L3 (11732012_x_at) / RFU MBOAT4 (11741988_at) / Fold change /veh MBOAT4 (11741988_at) / RFU 11764193_at / Fold change /veh 11764193_at / RFU TMEM53 (11763286_at) / Fold change /veh TMEM53 (11763286_at) / RFU MAGEB2 (11727129_at) / Fold change /veh MAGEB2 (11727129_at) / RFU TMEM200A (11744735_a_at) / Fold change /veh TMEM200A (11744735_a_at) / RFU CCDC152 (11751479_a_at) / Fold change /veh CCDC152 (11751479_a_at) / RFU FAM211A (11726209_a_at) / Fold change /veh FAM211A (11726209_a_at) / RFU RGS16 (11746705_a_at) / Fold change /veh RGS16 (11746705_a_at) / RFU VCAN (11755009_s_at) / Fold change /veh VCAN (11755009_s_at) / RFU RHOB (11743442_s_at) / Fold change /veh RHOB (11743442_s_at) / RFU RGS16 (11720943_a_at) / Fold change /veh RGS16 (11720943_a_at) / RFU RGS16 (11720944_at) / Fold change /veh RGS16 (11720944_at) / RFU, VPS4B / Fold change vs veh, VPS4B / RFU, CREB1 / Fold change vs veh, CREB1 / RFU, DNAJC13 / Fold change vs veh, DNAJC13 / RFU, GNAQ / Fold change vs veh, GNAQ / RFU, CDK5R1 / Fold change vs veh, CDK5R1 / RFU, ZRANB3 / Fold change vs veh, ZRANB3 / RFU, CUL4A / Fold change vs veh, CUL4A / RFU, CCNY / Fold change vs veh, CCNY / RFU, UFL1 / Fold change vs veh, UFL1 / RFU, COG3 / Fold change vs veh, COG3 / RFU, DIAPH2 / Fold change vs veh, DIAPH2 / RFU, SKA2 / Fold change vs veh, SKA2 / RFU, AFF3 / Fold change vs veh, AFF3 / RFU, LMF1 / Fold change vs veh, LMF1 / RFU, IPO11 / Fold change vs veh, IPO11 / RFU, DFFB / Fold change vs veh, DFFB / RFU, FOXP1 / Fold change vs veh, FOXP1 / RFU, CARD8 / Fold change vs veh, CARD8 / RFU, STRN3 / Fold change vs veh, STRN3 / RFU, ADK / Fold change vs veh, ADK / RFU, RASSF2 / Fold change vs veh, RASSF2 / RFU, WIPF1 / Fold change vs veh, WIPF1 / RFU, LARP1B / Fold change vs veh, LARP1B / RFU, RASA1 / Fold change vs veh, RASA1 / RFU, RB1 / Fold change vs veh, RB1 / RFU, PPFIA1 / Fold change vs veh, PPFIA1 / RFU, MAT2A / Fold change vs veh, MAT2A / RFU, CCT5 / Fold change vs veh, CCT5 / RFU, WDR92 / Fold change vs veh, WDR92 / RFU, CUX1 / Fold change vs veh, CUX1 / RFU, TTC7A / Fold change vs veh, TTC7A / RFU, TMEM135 / Fold change vs veh, TMEM135 / RFU, DEPTOR / Fold change vs veh, DEPTOR / RFU, CPM / Fold change vs veh, CPM / RFU, DNAJB6 / Fold change vs veh, DNAJB6 / RFU, CACNA2D3 / Fold change vs veh, CACNA2D3 / RFU, DTX4 / Fold change vs veh, DTX4 / RFU, TFCP2 / Fold change vs veh, TFCP2 / RFU, GMCL1 /// GMCL1P1 / Fold change vs veh, GMCL1 /// GMCL1P1 / RFU, AEBP2 / Fold change vs veh, AEBP2 / RFU, SNHG1 /// SNORD22 /// SNORD25 /// SNORD26 /// SNORD27 /// SNORD28 /// SNORD29 /// SNORD31 / Fold change vs veh, SNHG1 /// SNORD22 /// SNORD25 /// SNORD26 /// SNORD27 /// SNORD28 /// SNORD29 /// SNORD31 / Fold change (Aza/veh), C12orf56 (ProbeSet 11735607_a_at) / Fold change (ACY-1035/veh), C12orf56 (ProbeSet 11735607_a_at) / Fold change (Aza/veh), FGFR1OP (ProbeSet 11751329_s_at) / Fold change (ACY-1035/veh), FGFR1OP (ProbeSet 11751329_s_at) / Fold change (Aza/veh), VPS36 (ProbeSet 11739960_a_at) / Fold change (ACY-1035/veh), VPS36 (ProbeSet 11739960_a_at) / RFU SYPL1 (11715823_x_at) / Fold change /veh SYPL1 (11715823_x_at) / RFU IGFBP7 (11715501_s_at) / Fold change /veh IGFBP7 (11715501_s_at) / RFU REEP3 (11722064_at) / Fold change /veh REEP3 (11722064_at) / RFU IGLL1 (11728026_x_at) / Fold change /veh IGLL1 (11728026_x_at): dose or concentration left out as unconfirmed
# Conditions: ProbeSet 11748335_a_at; LIST B
smiles,measurement,value
Nc1ncn([C@@H]2O[C@H](CO)[C@@H](O)[C@H]2O)c(=O)n1 [azacitidine],"RFU, SLMO2",144.00 RFU

# — paper PMC5218480 (PLoS ONE, 2017)
